Source: patent publication US5387602A, “1.5-diphenyl-3-(N-hydroxycarbamoyloxyalkyl)pyrazoles” (Ortho Pharmaceutical Corporation, priority 1993, dated 1995)

How the values were obtained:
[1] = molecular target: T1, Sheep Seminal Vesicle Cyclooxygenase (Ovis aries, UniProt P05979); assay: Procedure I: sheep seminal vesicle (SSV) cyclooxygenase inhibition; assay type: biochemical
T1 construct: purchased Biomol (Plymouth Meeting, Pa.); host or cells: sheep seminal vesicle
T1 sequence (P05979 25-600): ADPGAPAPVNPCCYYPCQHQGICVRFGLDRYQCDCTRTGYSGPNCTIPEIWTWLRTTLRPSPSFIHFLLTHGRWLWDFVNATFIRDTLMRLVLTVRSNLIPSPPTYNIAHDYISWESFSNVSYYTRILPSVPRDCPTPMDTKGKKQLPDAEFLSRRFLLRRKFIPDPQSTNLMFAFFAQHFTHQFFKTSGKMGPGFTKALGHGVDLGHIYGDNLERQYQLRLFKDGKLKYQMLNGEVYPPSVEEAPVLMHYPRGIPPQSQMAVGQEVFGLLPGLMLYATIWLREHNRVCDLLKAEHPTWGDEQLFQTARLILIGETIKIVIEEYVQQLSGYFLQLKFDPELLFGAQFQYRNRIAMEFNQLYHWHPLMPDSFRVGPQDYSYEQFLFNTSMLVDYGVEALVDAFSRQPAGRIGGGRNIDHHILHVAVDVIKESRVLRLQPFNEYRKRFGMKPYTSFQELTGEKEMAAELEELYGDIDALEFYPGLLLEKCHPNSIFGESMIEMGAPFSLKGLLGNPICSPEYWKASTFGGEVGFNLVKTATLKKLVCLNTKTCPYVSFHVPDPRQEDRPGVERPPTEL
Experimental: Sheep Seminal Vesicle Cyclooxygenase Sheep seminal vesicle (SSV) cyclooxygenase (95% pure, prostaglandin endoperoxide synthase, EC 1.14.99.1 specific activity 24 units/mg protein) obtained as a lyophilized powder from Biomol (Plymouth Meeting, Pa.) was reconstituted at a concentration of 59 mg/mL in Hanks' Balanced Salt Solution (HBSS). The enzyme was divided into 200 μL aliquots, snap frozen with liquid N2, and stored at -70° C. until immediately prior to use. Measurements of CO activity were carried out in polypropylene tubes containing 495 μL of HBSS to which was added 5 μL Of inhibitor or dimethylsulfoxide (DMSO; vehicle control) and 6 μL of SSV CO solution. The tubes were mixed on a vortex shaker, preincubated for 5 min at 37° C. prior to the initiation of the reaction. The reaction was started by the addition of [^14 C]-arachidonic acid (1-^14 C-AA, Amersham, Arlington Heights, Ill.) in 10 μL of methanol. Tubes were again vortexed and incubated in a water bath for 20 minutes after which the tubes were removed and the reaction stopped by acidification with the addition of 1 mL 2M formic acid. Lipophilic products were extracted with 3 mL chloroform and concentrated to dryness under N2. Each pellet was reconstituted with 40 μL of chloroform and spotted on a Whatman Silicon thin-layer chromatography plate and developed in a chromatography tank containing A-9 solvent (11:5:2:1 V:V:V:V, ethyl acetate:trimethyl-pentane:acetic acid:double distilled-H2 O). Radioactive cyclooxygenase products (prostaglandin D2, prostaglandin E2, etc.) were measured using a Bioscan System 200 Imaging Scanner. Inhibition of enzyme activity was calculated by comparing the areas under the curve produced in the presence or absence of test compound. In the following tables, the superscripts indicate the number of experiments and, unless otherwise stated, the dose at which % inhibition is reported is 3 MPK.

[2] = molecular target: T2, 5-LO in intact RBL-1 cells (Rattus norvegicus, UniProt P12527); assay: Procedure III: inhibition of 5-LO in intact RBL-1 cells; assay type: cell-based
T2 construct: 5-LO and CO in intact RBL-1 cells; endogenous in cells; host or cells: RBL-1 (rat basophilic leukemia cells), intact
T2 sequence (P12527 1-673): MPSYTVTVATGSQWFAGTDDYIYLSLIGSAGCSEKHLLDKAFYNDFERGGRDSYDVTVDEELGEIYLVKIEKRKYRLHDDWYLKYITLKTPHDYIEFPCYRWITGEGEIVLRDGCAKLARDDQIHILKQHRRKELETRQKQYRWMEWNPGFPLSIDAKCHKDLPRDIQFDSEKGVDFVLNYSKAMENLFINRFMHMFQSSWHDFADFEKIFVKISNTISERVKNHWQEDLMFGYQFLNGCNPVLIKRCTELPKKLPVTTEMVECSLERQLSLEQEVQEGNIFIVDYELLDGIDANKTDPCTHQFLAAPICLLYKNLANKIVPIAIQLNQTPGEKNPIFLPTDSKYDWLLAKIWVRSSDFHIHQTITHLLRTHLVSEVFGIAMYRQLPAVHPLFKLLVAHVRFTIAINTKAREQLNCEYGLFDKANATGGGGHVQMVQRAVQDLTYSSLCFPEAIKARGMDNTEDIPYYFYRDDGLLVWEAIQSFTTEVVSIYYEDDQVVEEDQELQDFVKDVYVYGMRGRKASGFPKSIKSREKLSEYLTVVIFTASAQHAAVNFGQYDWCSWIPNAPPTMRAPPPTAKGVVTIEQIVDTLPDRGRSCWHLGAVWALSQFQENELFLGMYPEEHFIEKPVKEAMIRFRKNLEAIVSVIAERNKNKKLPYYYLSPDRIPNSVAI
Experimental: The ability to inhibit 5-LO and CO in intact RBL-1 cells was also evaluated. RBL-1 cells were maintained in culture in minimal essential medium (Bio*Whittaker, Walkersville, Md.), containing 12.5% fetal calf serum, 10 mg/mL streptomycin, 10 I.U./mL penicillin G, […] gentamycin and 2 mM L-glutamine (Bio*Whittaker, Walkersville, Md.). Cells were collected by centrifugation, washed once in HBSS, and resuspended at a concentration of 1×10^5 cells/mL. Cells were incubated in the presence of vehicle or drug then centrifuged at 800×g for 10 minutes at 4° C. The supernatant was removed by aspiration and the cells were resuspended in 0.5 mL of HBSS. The reaction was started by the addition of 20 μg/mL of calcium ionophore A-23187 (mixed calcium and magnesium salts, Calbiochem, La Jolla, Calif.) and allowed to proceed for 15 minutes, then stopped by plunging the tubes into a slush ice bath. The conversion of AA to 5-LO products was initiated by the addition of 10 μL (50 uCi) of 1-^14 C-AA. Products were isolated by acidification and extraction, followed by thin layer chromatography analysis as described above. Radioactive areas corresponding to authentic 5-LO and CO products were quantitated by the Bioscan 2000 Imaging System.
In the following tables, the superscripts indicate the number of experiments and, unless otherwise stated, the dose at which % inhibition is reported is 3 MPK.

Q: What does the source list for `COc1ccc(-n2nc(CCCOC(=O)N(O)C(C)C)c(Br)c2-c2ccc(Cl)cc2)cc1` [3-G]?
A: IC50 ([1]; SSV CO): 14.1 µM; % INHIB. CO (Procedure I) ([1]; dose 3 MPK unless otherwise stated (so in the source)): 0%; IC50 [2]: 1.5 µM
